# Laboratory results taken from patent publication US12209072B2, “Cyclopentyl acids as LPA antagonists” (BRISTOL-MYERS SQUIBB COMPANY, priority 2018, dated 2025).
# Target: T1, human LPA1 (Homo sapiens, UniProt Q92633)
# T1 construct: expressed in transfected cells; host or cells: Chinese hamster ovary (CHO) cells
# Assay: LPA1 functional antagonist assay (LPA-induced calcium flux)
# Assay type: cell-based
# Details: CHO cells overexpressing human LPA1; inhibition of calcium flux induced by 10 nM LPA; read-out: hLPA1 IC50
# Description: The effectiveness of compounds of the present invention as LPA1 inhibitors can be determined in an LPA1 functional antagonist assay as follows:
# Chinese hamster ovary cells overexpressing human LPA1 were plated overnight (15,000 cells/well) in poly-D-lysine coated 384-well microplates (Greiner bio-one, Cat #781946) in DMEM/F12 medium (Gibco, Cat #11039). Following overnight culture, cells were loaded with calcium indicator dye (AAT Bioquest Inc, Cat #34601) for 30 minutes at 37° C. The cells were then equilibrated to room temperature for 30 minutes before the assay. Test compounds solubilized in DMSO were transferred to 384 well non-binding surface plates (Corning, Cat #3575) using the Labcyte Echo acoustic dispense and diluted with assay buffer [1×HBSS with calcium/magnesium (Gibco Cat #14025-092), 20 mM HEPES (Gibco Cat #15630-080) and 0.1% fatty acid free BSA (Sigma Cat #A9205)] to a final concentration of 0.5% DMSO. Diluted compounds were added to the cells by FDSS6000 (Hamamatsu) at final concentrations ranging from 0.08 nM to 5 μM. and were then incubated for 20 min at room temperature at which time LPA (Avanti Polar Lipids Cat #857130C) was added at final concentrations of 10 nM to stimulate the cells. The compound IC50 value was defined as the concentration of test compound which inhibited 50% of the calcium flux induced by LPA alone. IC50 values were determined by fitting data to a 4-parameter logistic equation (GraphPad Prism, San Diego CA).
# T1 sequence (Q92633 whole entry): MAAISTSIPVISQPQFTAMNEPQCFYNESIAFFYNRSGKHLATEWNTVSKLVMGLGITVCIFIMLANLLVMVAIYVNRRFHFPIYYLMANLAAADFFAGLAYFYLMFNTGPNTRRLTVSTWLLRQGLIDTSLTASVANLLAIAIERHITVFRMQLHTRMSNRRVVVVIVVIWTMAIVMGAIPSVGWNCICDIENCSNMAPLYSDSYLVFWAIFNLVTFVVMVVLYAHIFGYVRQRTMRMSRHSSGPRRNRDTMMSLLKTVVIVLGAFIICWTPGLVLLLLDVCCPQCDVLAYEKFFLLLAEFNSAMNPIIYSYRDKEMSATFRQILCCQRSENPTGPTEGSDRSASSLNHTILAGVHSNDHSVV
row,SMILES,IC50 [nM]
1,"Cc1noc(-c2ccc(O[C@@H]3CC[C@@H](C(=O)O)C3)cc2)c1COC(=O)N(C)C1CCCC1 (racemic) [Example 3, (±)-Trans-3-(4-(4-(((cyclopentyl(methyl)carbamoyl)oxy)methyl)-3-methylisoxazol-5-yl)phenoxy)cyclopentane-1-carboxylic Acid]",171
2,"Cc1nc(-c2onc(C)c2COC(=O)N(C)C2CCCC2)ccc1O[C@@H]1CC[C@@H](CC(=O)O)C1 (racemic) [Example 8, (±)-Trans-2-(3-((6-(4-(((cyclopentyl(methyl)carbamoyl)oxy)methyl)-3-methylisoxazol-5-yl)-2-methylpyridin-3-yl)oxy)cyclopentyl)acetic Acid]",13
3,"CCCC1(COC(=O)NCc2c(-c3ccc(O[C@@H]4CC[C@@H](CC(=O)O)C4)c(C)n3)nnn2C)CC1 (racemic) [Example 9, (±)-Trans-2-(3-((2-methyl-6-(1-methyl-5-(((((1-propylcyclopropyl)methoxy)carbonyl)amino)methyl)-1H-1,2,3-triazol-4-yl)pyridin-3-yl)oxy)cyclopentyl)acetic Acid]",111
4,"CCCC1(N(C)C(=O)OCc2c(-c3ccc(O[C@@H]4CC[C@@H](CC(=O)O)C4)c(C)n3)nnn2C)CC1 (racemic) [Example 10, (±)-Trans-2-(3-((2-methyl-6-(1-methyl-5-(((methyl(1-propylcyclopropyl)carbamoyl)oxy)methyl)-1H-1,2,3-triazol-4-yl)pyridin-3-yl)oxy)cyclopentyl)acetic Acid]",372
5,"Cc1nc(-c2nnn(C)c2COC(=O)N(C)CC2CCC2)cnc1O[C@@H]1CC[C@@H](C(=O)O)C1 (racemic) [Example 13, (±)-Trans-3-((5-(5-((((cyclobutylmethyl)(methyl)carbamoyl)oxy)methyl)-1-methyl-1H-1,2,3-triazol-4-yl)-3-methylpyrazin-2-yl)oxy)cyclopentanecarboxylic Acid]",618
6,"Cc1nc(-c2nnn(C)c2COC(=O)N(C)CC2CCCC2)cnc1O[C@@H]1CC[C@@H](C(=O)O)C1 (racemic) [Example 14, (±)-trans-3-((5-(5-((((cyclo-pentylmethyl)(methyl)carbamoyl)oxy)methyl)-1-methyl-1H-1,2,3-triazol-4-yl)-3-methylpyrazin-2-yl)oxy) cyclopentanecarboxylic Acid]",184
7,"Cc1nc(-c2nnn(C)c2CNC(=O)OCc2ccccc2)cnc1O[C@@H]1CC[C@@H](C(=O)O)C1 (racemic) [Example 15, (±)-Trans-3-((5-(5-((((benzyloxy)carbonyl)amino)methyl)-1-methyl-1H-1,2,3-triazol-4-yl)-3-methylpyrazin-2-yl)oxy)cyclopentanecarboxylic Acid]",714
8,"Cc1nc(-c2cnn(C)c2COC(=O)N(C)CC2CCC2)cnc1O[C@H]1CC[C@H](C(=O)O)C1 (racemic) [Example 16, (±)-Trans-3-((5-(5-((((cyclobutylmethyl)(methyl)carbamoyl)oxy)methyl)-1-methyl-1H-pyrazol-4-yl)-3-methylpyrazin-2-yl)oxy)cyclopentanecarboxylic Acid]",202
9,"Cc1nc(-c2cnn(C)c2CNC(=O)OCc2ccccc2)cnc1O[C@H]1CC[C@H](C(=O)O)C1 (racemic) [Example 18, (±)-Trans-3-((5-(5-((((benzyloxy)carbonyl)amino)methyl)-1-methyl-1H-pyrazol-4-yl)-3-methylpyrazin-2-yl)oxy)cyclopentanecarboxylic Acid]",369
10,"Cc1nc(-c2nnn(C)c2CNC(=O)OCc2ccccc2)ccc1O[C@@H]1CC[C@@H](C(=O)O)C1 (racemic) [Example 20, (±)-trans-3-((6-(5-((((benzyloxy)carbonyl)amino)methyl)-1-methyl-1H-1,2,3-triazol-4-yl)-2-methyl-pyridin-3-yl)oxy)cyclopentane carboxylic acid]",39.7
11,"Cc1nc(-c2nnn(C)c2COC(=O)N(C)Cc2ccccc2)ccc1O[C@@H]1CC[C@@H](C(=O)O)C1 (racemic) [Example 22, (±)-trans-3-((6-(5-(((benzyl(methyl)carbamoyl)oxy)methyl)-1-methyl-1H-1,2,3-triazol-4-yl)-2-methylpyridin-3-yl)oxy)cyclopentane carboxylic acid]",182

# Second part, the compound after the results:
row,IC50 [nM],SMILES
1,2040,"CCCN(C)C(=O)OCc1c(-c2ccc(O[C@@H]3CC[C@@H](C(=O)O)C3)c(C)n2)nnn1C (racemic) [Example 23, (±)-trans-3-((2-methyl-6-(1-methyl-5-(((methyl(propyl)carbamoyl)oxy)methyl)-1H-1,2,3-triazol-4-yl)pyridin-3-yl)oxy)cyclopentanecarboxylic acid]"
2,1160,"Cc1nc(-c2nnn(C)c2COC(=O)N(C)CC(C)C)ccc1O[C@@H]1CC[C@@H](C(=O)O)C1 (racemic) [Example 24, (±)-trans-3-((6-(5-(((isobutyl(methyl)carbamoyl)oxy)methyl)-1-methyl-1H-1,2,3-triazol-4-yl)-2-methylpyridin-3-yl)oxy)cyclopentane carboxylic acid]"
3,354,"CN(CC1CCC1)C(=O)OCc1c(-c2ccc(O[C@@H]3CC[C@@H](C(=O)O)C3)cn2)nnn1C (racemic) [Example 25, (±)-trans-3-((6-(5-((((cyclobutyl-methyl)(methyl)carbamoyl)oxy)methyl)-1-methyl-1H-1,2,3-triazol-4-yl)pyridin-3-yl)oxy)cyclopentane carboxylic acid]"
4,371,"Cc1nc(-c2nnn(C)c2COC(=O)N(C)CC2CCC2)cnc1O[C@H]1CC[C@H](CC(=O)O)C1 (racemic) [Example 26, (±)-2-(Trans-3-((5-(5-((((cyclobutylmethyl)(methyl)carbamoyl)oxy)methyl)-1-methyl-1H-1,2,3-triazol-4-yl)-3-methylpyrazin-2-yl)oxy)cyclopentyl)acetic Acid]"
5,54,"Cc1noc(-c2ccc(O[C@@H]3CC[C@@H](CC(=O)O)C3)cn2)c1CNc1nccc(-c2ccccn2)n1 (racemic) [Example 29, (±)2-(Trans-3-((6-(3-methyl-4-(((4-(pyridin-2-yl)pyrimidin-2-yl)amino)methyl)isoxazol-5-yl)pyridin-3-yl)oxy)cyclopentyl)acetic Acid]"
6,21,"Cc1nc(-c2nnn(C)c2COC(=O)N(C)CC2CCC2)ccc1OC[C@@H]1CC[C@H](C(=O)O)C1 (racemic) [Example 30, (±)-Cis-3-(((6-(5-((((cyclobutylmethyl)(methyl)carbamoyl)oxy)methyl)-1-methyl-1H-1,2,3-triazol-4-yl)-2-methylpyridin-3-yl)oxy)methyl)cyclopentane-1-carboxylic Acid]"
7,25,"Cc1nc(-c2onc(C)c2COC(=O)N(C)C2CCCC2)ccc1O[C@H]1CC[C@@H](CC(=O)O)C1 (racemic) [Example 47, (±)-cis-2-[3-({6-[4-({[cyclopentyl(methyl)carbamoyl]oxy}methyl)-3-methyl-1,2-oxazol-5-yl]-2-methyl-pyridin-3-yl}oxy)cyclopentyl]acetic acid]"
8,40,"Cc1nc(-c2nnn(C)c2COC(=O)N(C)CC2CCC2)ccc1O[C@H]1CC[C@@H](CC(=O)O)C1 (racemic) [Example 48, (±)-cis-2-[3-({6-[5-({[(cyclobutyl-methyl)(methyl)carbamoyl]oxy}methyl)-1-methyl-1H-1,2,3-triazol-4-yl]-2-methylpyridin-3-yl}oxy)cyclopentyl]acetic acid]"
9,20,"Cc1nc(-c2onc(C)c2COC(=O)N(C)C2CCCC2)ccc1O[C@H]1CC[C@H](C(C)C(=O)O)C1 (mixture of isomers) [Example 50, (±)-trans-2-[3-({6-[4-({[cyclopentyl(methyl)carbamoyl]oxy}methyl)-3-methyl-1,2-oxazol-5-yl]-2-methyl-pyridin-3-yl}oxy)cyclopentyl]propanoic acid]"
10,24,"Cc1nc(-c2onc(C)c2COC(=O)N(C)C2CCCC2)ccc1O[C@H]1CC[C@H](C(C)C(=O)O)C1 (mixture of isomers) [Example 51, (±)-trans-2-[3-({6-[4-({[cyclopentyl(methyl)carbamoyl]oxy}methyl)-3-methyl-1,2-oxazol-5-yl]-2-methyl-pyridin-3-yl}oxy)cyclopentyl]propanoic acid]"
11,8,"Cc1nc(-c2onc(C)c2COC(=O)N(C)C2CCCC2)ccc1O[C@H]1CC[C@H](C(C)(C)C(=O)O)C1 (racemic) [Example 52, (±)-trans-2-[3-({6-[4-({[cyclopentyl(methyl)carbamoyl]oxy}methyl)-3-methyl-1,2-oxazol-5-yl]-2-methyl-pyridin-3-yl}oxy)cyclopentyl]-2-methylpropanoic acid]"
12,14,"Cc1nc(-c2nnn(C)c2COC(=O)N(C)CC2CCC2)ccc1O[C@H]1CC[C@H](C2(C(=O)O)CC2)C1 (racemic) [Example 53, (±)-trans-1-[3-({6-[5-({[(cyclobutyl-methyl)(methyl)carbamoyl]oxy}methyl)-1-methyl-1H-1,2,3-triazol-4-yl]-2-methylpyridin-3-yl}oxy)cyclo-pentyl]cyclopropane-1-carboxylic acid]"
